Results reported in patent EP1144368B1, “ACETYLENIC ALPHA-AMINO ACID-BASED SULFONAMIDE HYDROXAMIC ACID TACE INHIBITORS” (priority 1999, dated 2000).
Structures can show the parent of a compound that is named as a salt. Where two headings read alike, the source gives them in different places.

Assays:
MMP-1 = molecular target: T1, MMP-1 (Homo sapiens, UniProt P03956); test: MMP-1 inhibition (thiopeptide or fluorescent peptide substrate); assay type: biochemical
T1 sequence (P03956 100-469): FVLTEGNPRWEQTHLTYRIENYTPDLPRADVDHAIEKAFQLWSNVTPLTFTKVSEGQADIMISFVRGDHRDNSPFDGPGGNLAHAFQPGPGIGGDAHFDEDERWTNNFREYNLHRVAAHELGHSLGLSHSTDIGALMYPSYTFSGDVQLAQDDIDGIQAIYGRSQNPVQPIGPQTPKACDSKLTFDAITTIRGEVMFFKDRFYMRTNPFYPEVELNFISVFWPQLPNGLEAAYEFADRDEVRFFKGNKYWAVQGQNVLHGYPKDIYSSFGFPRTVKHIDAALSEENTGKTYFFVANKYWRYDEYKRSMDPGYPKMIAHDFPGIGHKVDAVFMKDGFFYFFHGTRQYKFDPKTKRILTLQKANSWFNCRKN

MMP-9 = MMP-9 (Homo sapiens, UniProt P14780); test: MMP-9 inhibition (thiopeptide or fluorescent peptide substrate); assay type: biochemical
Sequence of MMP-9 (P14780 107-707 limits assumed): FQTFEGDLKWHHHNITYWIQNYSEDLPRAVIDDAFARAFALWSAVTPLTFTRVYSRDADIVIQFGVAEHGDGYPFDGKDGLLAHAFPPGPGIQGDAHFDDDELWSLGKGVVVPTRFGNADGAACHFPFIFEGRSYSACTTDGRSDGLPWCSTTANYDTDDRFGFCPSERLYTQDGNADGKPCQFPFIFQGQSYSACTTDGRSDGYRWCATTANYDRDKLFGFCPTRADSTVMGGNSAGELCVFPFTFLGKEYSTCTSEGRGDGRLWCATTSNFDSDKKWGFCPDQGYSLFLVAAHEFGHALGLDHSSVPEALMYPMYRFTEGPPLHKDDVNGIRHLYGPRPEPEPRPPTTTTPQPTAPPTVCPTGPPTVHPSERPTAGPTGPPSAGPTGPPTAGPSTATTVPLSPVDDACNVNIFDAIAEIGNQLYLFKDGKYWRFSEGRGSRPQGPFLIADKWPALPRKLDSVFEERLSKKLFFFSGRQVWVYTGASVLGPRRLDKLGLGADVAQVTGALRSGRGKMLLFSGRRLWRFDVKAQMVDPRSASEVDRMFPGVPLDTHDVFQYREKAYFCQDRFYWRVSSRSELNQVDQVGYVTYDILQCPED

MMP-13 = MMP-13 (Homo sapiens, UniProt P45452); test: MMP-13 inhibition (thiopeptide or fluorescent peptide substrate); assay type: biochemical
TACE = TACE (Homo sapiens, UniProt P78536); test: TACE inhibition (fluorescent peptidyl substrate); assay type: biochemical; conditions: read-out: TACE IC50
Sequence of TACE (P78536 215-824): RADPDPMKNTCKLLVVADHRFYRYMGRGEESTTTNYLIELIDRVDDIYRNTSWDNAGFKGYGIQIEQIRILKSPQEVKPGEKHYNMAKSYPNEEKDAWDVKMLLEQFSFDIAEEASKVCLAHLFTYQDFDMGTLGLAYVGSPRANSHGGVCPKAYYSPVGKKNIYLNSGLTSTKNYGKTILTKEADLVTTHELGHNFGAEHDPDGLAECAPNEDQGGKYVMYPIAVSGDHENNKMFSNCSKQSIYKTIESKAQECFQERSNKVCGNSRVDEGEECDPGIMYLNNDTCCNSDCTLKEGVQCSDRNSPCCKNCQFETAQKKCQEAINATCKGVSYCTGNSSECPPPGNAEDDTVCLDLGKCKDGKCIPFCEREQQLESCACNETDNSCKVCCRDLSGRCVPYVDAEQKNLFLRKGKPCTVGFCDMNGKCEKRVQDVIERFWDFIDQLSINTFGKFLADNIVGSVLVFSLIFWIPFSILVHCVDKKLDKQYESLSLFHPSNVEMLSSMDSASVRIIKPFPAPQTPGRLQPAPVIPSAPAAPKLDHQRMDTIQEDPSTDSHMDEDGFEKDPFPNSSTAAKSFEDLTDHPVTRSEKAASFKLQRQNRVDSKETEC

THP-1 cells = test: THP-1 Soluble Protein Assay (LPS-stimulated; ELISA of TNF-a, TNF-R p75/80, TNF-R p55/60, IL-8); assay type: cell-based, human; conditions: for inhibition at 3 µM: Homo sapiens
[1] = THP-1, read-out: THP % inhibition @ 3 µM, 3 µM

Row | IC50 (MMP-1) | IC50 (MMP-9) | IC50 (MMP-13) | IC50 (TACE) | Molecule | THP % inhibition @ 3 µM (THP-1 cells; 3 µM) | inhibition at 3 µM (THP-1 cells; THP-1, read-out: THP % inhibition @ 3 µM) | inhibition at 3 µM (THP-1 cells; [1])
1 | 25 nM | 20 nM | 9.3 nM | 51 nM | 2-[(4-But-2-ynyloxy-benenesulfonyl)-methyl-amino]-N-hydroxy-3-methyl-3-ethylsulfanyl-butyramide [Example 150] | 86% | – | –
2 | 212 nM | 149 nM | 36 nM | 73 nM | CC#CCOc1ccc(S(=O)(=O)N(CC#CCN(CC)CC)C(C(=O)NO)C(C)C)cc1 (stereo not drawn) [Example 126, 2-{{[4-(2-Butynyloxy)phenyl]sulfonyl}[4-(diethylamino)-2-butynyl]amino}-N-hydroxy-3-methylbutanamide] | – | – | 93%
3 | > 10000 nM | 2370 nM | 1120 nM | 1100 nM | CN(CC(=O)NO)S(=O)(=O)c1ccc(OCC#Cc2ccc(Cl)cc2)cc1 [Example 132, 2-[[(4-{[3-(4-Chlorophenyl)-2-propynyl]oxy}phenyl)sulfonyl](methyl)amino]-N-hydroxyacetamide] | – | – | 27%
4 | 4950 nM | 111 nM | 84 nM | – | CC#CCSc1ccc(S(=O)(=O)N(C)CC(=O)NO)cc1 [Example 134, 2-[(4-But-2-ynylthiophenylsulfonyl)methylamino]-N-hydroxyacetamide] | – | – | 14%
5 | 18 nM | 7.1 nM | 2.5 nM | 109 nM | CC#CCOc1ccc(S(=O)(=O)N(C)C(C(=O)NO)C(C)(C)SCCN2CCCC2C(=O)OC)cc1 (stereo not drawn) [Example 145] | – | – | 83%
6 | 25 nM | 4.8 nM | 5.2 nM | 88 nM | CC#CCOc1ccc(S(=O)(=O)N(C)C(C(=O)NO)C(C)(C)SCCCN(CC)CC)cc1 (stereo not drawn) [Example 148] | – | – | 87%

Row | Molecule | IC50 (MMP-1) | IC50 (MMP-9) | IC50 (MMP-13) | IC50 (TACE) | THP % inhibition @ 3 µM (THP-1 cells; 3 µM) | inhibition at 3 µM (THP-1 cells; THP-1, read-out: THP % inhibition @ 3 µM) | inhibition at 3 µM (THP-1 cells; [1])
7 | CC#CCOc1ccc(S(=O)(=O)N(CC(=O)NO)Cc2cccnc2)cc1 [Example 23, 2-[(4-But-2-ynyloxy-benzenesulfonyl)-pyridin-3-ylmethyl-amino]-N-hydroxy-acetamide hydrochloride] | 1160 nM | 40 nM | 20 nM | – | – | 63% | –
